As a reminder, the IC50 is the concentration that inhibits the measured activity by half. A high value points to a need for much substance.

Here are results for 7 compounds from US7329666B2, “Derivatives of variolin B” (Pharma Mar, S.A., priority 2000, dated 2008).

The structures appear in SMILES notation.

The test system of one data set is P-388. The data set can be described thus: cytotoxicity against P-388. Type of data set: cell-based. To be noted: Mus musculus, P388. The method, then:
(§1) The cytotoxicity of the compounds of scheme 4 of this invention is illustrated by the following IC50 μM data: […]

Another data set has as its system A-549. The data set can be described thus: cytotoxicity against A-549. The data set is classed as cell-based. Particulars: Homo sapiens, A549. The procedure:
as §1

Another data set has as its system HT-29. Description: cytotoxicity against HT-29. Type of data set: cell-based. To be noted: Homo sapiens. The procedure: as §1
A further data set relates to Sacharomyces cerevisiae. To be noted: cited from earlier work.
The next data set deals with HCT 116 cell line. To be noted: cited from earlier work.
The next data set relates to P388 cell line. Particulars: Tetrahedron 1994, 50, 3987-3992; cited from earlier work.
For data set [1] the following is noted: cited from earlier work.
Another data set deals with other microorganisms. To be noted: cited from earlier work.
The next data set has as its system Herpes simplex. Particulars: cited from earlier work.

`CSc1nccc(-c2c3cccnc3n3c(NC(C)=O)nccc23)n1` [Compound 20a, 9-Acetylamino-5-(2-methanesulfanylpyrimidin-4-yl)pyrido[3′,2′:4,5]-pyrrolo-[1,2-c]pyrimidine]: the half-maximal inhibitory concentration (IC50) was more than 3 µM in the data set on P-388, 0.29 µM in the data set on A-549 and 0.29 µM in the data set on HT-29.
With `CN1C(N)=NCCC1c1c2c(O)ccnc2n2c(N)nccc12` (stereo not shown) [N(3′)-methyltetrahydrovariolin B, N (3′)-methyl tetrahydrovariolin B], the “growth of Sacharomyces cerevisiae” value with Sacharomyces cerevisiae was “inhibited the growth”. Further, in the data set on HCT 116 cell line, the “in vitro activity against the HCT 116 cell line” value is given as “in vitro activity”.
Turning to `Nc1nccc(-c2c3cccnc3n3c(N)nccc23)n1` [Compound 5, 9-Amino-5-(2-aminopyrimidin-4-yl)pyrido[3′,2′:4,5]pyrrolo[1,2-c]-pyrimidine], the values for the half-inhibitory concentration (IC50) in the data set with P-388, in the data set with A-549 and with HT-29 were 0.36 µM, 0.04 µM and 0.04 µM, respectively.
Consider `CSc1nccc(-c2c3cccnc3n3c(N)nccc23)n1` [Compound 21, 9-Amino-5-(2-methanesulfanylpyrimidin-4-yl)pyrido[3′,2′:4,5]pyrrolo[1,2-c]pyrimidine], for which the half-maximal inhibitory concentration (IC50) was more than 3 µM in the data set on P-388, 0.16 µM in the data set with A-549 and 0.16 µM with HT-29.
With `C[n+]1c([O-])cc(-c2c3c(O)ccnc3n3c(N)nccc23)nc1N` [Variolin A], in the data set with P388 cell line, the “cytotoxic activity against the P388 cell line” value is on record as “important cytotoxic activity”.
`COC(=O)c1c2c(O)ccnc2n2c(N)nccc12` [Variolin D, variolin D]: the “activity in all the assays” value in data set [1] was “inactive”.
On to `Nc1nccc(-c2c3c(O)ccnc3n3c(N)nccc23)n1` [variolin B], for which, in the data set on other microorganisms, the “activity against a range of other microorganisms” value was “inactive”. Also, the IC50 is 0.85 µM with P-388, 0.17 µM in the data set with A-549 and 0.09 µM in the data set with HT-29. Also, the “cytotoxic activity against the P388 cell line” value with P388 cell line is on record as “cytotoxic activity”. The “effectiveness against Herpes simplex” value with Herpes simplex is recorded as “effective”.
